Measurements taken from patent US10426850B2, “Collagen mimetic peptides for targeting collagen strands for in vitro and in vivo imaging and therapeutic use” (The Johns Hopkins University, priority 2011, dated 2019).

Tests used:
[1] = biological target: T1, MMP-1 cleaved type I collagen (Rattus norvegicus, UniProt P02454+P02466); assay: Photo-triggered CMP binding assay on MMP-1 digested collagen; details: MMP-1 digested collagens after the 37° C. incubation; UV-activated
T1 construct: purchased BD Science (collagen); EMD Millipore (ProMMP-1); host or cells: rat tail; digested in house
Procedure: (§1) MMP-1 digestion of type I collagen and CMP binding assays. ProMMP-1 (1 μg, EMD Millipore) was activated by p-aminophenylmercuric acetate (1.1 mM) in 132.5 μL of TNC buffer (50 mM Tris-HCl, 0.15 M NaCl, 5 mM CaCl2, 0.02% NaN3, pH 7.5) at 37° C. for 3 hr. Type I collagen (62.6 μg) was subsequently added to the MMP-1 solution and incubated at room temperature for at least 3 days. Digested products were analyzed by SDS-PAGE and circular dichroism spectroscopy (FIG. 12). Wells of nunc black 96-well maxisorp plate were charged with 50 μL of TNC buffer containing 0.5 M glycerol, and 100 μg/mL collagen or MMP-1 cleaved collagen, and incubated at room temperature. The collagen solutions used were either kept at room temperature (22° C.) or incubated at 37° C. for 1 minute just prior to coating. […] Wells were washed extensively with PBSB followed by fluorescence (ex: 489 nm, em: 533 nm) reading with a SpectraMax M-2 microplate reader (Molecular Devices). […] The background fluorescence of empty wells was subtracted from the raw fluorescence data. For estimating the amount of adsorbed protein, un-blocked collagen-coated wells were treated with 100 μM 5-(4,6-dichlorotriazinyl)aminofluorescein (DTAF, 50 μL, in 0.1 M sodium borate buffer) at room temperature for 3 hours, and the fluorescence (ex: 489 nm, em: 533 nm) of the well was measured after washing with 1×PBS. […]

[2] = biological target: T2, type I collagen films (Rattus norvegicus, UniProt P02454+P02466); assay: Quantification of CF(GPO)9 bound on type I collagen films; type: binding; details: UV+, collagenase digestion, standard curve
T2 construct: Collagen solution (200 μL, 3.71 mg/mL, type I rat tail, BD Science); purchased BD Science; host or cells: rat tail
Procedure: Quantification of CF(GPO)9 (SEQ ID NO: 10) bound on type I collagen films. Following photo-induced binding, CMP-bound collagen films (e.g. the UV+ group of FIG. 10A) were digested with 200 μL of collagenase (Sigma, C0130) solutions (1 mg/mL) in TESCA buffer (50 mM TES buffer with 1.36 mM CaCl2, pH 7.4) for 1 hr at 37° C. The digested solutions were directly used for fluorescence measurement (ex: 489 nm, em: 533 nm). For the standard curve, a series of solutions containing known amounts of CF^NB(GPO)9 (SEQ ID NO: 4) (0 to 0.35 nmol) were applied to blank collagen films and air-dried, followed by collagenase digestion and fluorescence measurement as described above. The amount of bound CF(GPO)9 (SEQ ID NO: 10) was determined by comparing the fluorescence intensity of the digested collagen/CMP solutions with the standard curve, and the binding density was determined by dividing the amount bound by the area of the well. The experiment was performed in triplicate.

[3] = biological target: T3, intact type I collagen (Rattus norvegicus, UniProt P02454+P02466); assay: Photo-triggered CMP binding assay on intact non-fibrillar collagen; details: intact collagens, before and after 37° C. incubation; UV-activated
T3 construct: type I rat tail, BD Science; purchased BD Science; host or cells: rat tail
Procedure: as §1

[4] = system: whole cell lysate of human umbilical vein endothelial cells (HUVEC); assay: SDS-PAGE staining by heat activated fluorescent CMP, cell lysate; type: binding; details: 6 μM
Procedure: To prepare MMP-1 cleaved collagen chain fragments, proMMP-1 (1 μg) was activated by p-aminophenylmercuric acetate (1.1 mM) in 132.5 μL of TNC buffer (50 mM Tris-HCl, 0.15 M NaCl, 5 mM CaCl2, 0.02% NaN3, pH 7.5) at 37° C. for 3 hr, after which type I collagen (62.6 μg) was added to the activated MMP-1 solution and incubated at room temperature for at least 3 days. To obtain the cell lysate, confluent HUVECs cultured in EGM-2 media at 37° C. were lysed with lysis buffer (25 mM Tris-HCl, 0.5% Triton X-100, 200 mM NaCl, 2 mM EDTA, phosphatase and protease inhibitors; Roche Applied Science). The lysate solution was spun at 15,000 g for 15 min and the supernatant was collected. The recombinant streptococcal collagen-like protein Scl2.28CL was expressed and characterized following the methods introduced by Mohs et al. (J. Biol. Chem. 282, 29757-29765 (2007)).
SDS-PAGE staining and imaging. Proteins were resolved on NuPAGE® Novex 4-12% bis-tris gels under denaturating conditions using an XCell SureLock™ Mini-Cell electrophoresis system (Life Technologies). […] The fluorescence intensities of the protein bands were quantified using GE ImageQuant™ TL software. After fluorescence imaging, all gels were further stained with coomassie brilliant blue (CB) G-250 (Bio-Rad) for 2-3 hr followed by washing, and imaging under white light illumination using a Gel Doc EQ system (BioRad).

T1 sequence (P02454 152-942 limits assumed): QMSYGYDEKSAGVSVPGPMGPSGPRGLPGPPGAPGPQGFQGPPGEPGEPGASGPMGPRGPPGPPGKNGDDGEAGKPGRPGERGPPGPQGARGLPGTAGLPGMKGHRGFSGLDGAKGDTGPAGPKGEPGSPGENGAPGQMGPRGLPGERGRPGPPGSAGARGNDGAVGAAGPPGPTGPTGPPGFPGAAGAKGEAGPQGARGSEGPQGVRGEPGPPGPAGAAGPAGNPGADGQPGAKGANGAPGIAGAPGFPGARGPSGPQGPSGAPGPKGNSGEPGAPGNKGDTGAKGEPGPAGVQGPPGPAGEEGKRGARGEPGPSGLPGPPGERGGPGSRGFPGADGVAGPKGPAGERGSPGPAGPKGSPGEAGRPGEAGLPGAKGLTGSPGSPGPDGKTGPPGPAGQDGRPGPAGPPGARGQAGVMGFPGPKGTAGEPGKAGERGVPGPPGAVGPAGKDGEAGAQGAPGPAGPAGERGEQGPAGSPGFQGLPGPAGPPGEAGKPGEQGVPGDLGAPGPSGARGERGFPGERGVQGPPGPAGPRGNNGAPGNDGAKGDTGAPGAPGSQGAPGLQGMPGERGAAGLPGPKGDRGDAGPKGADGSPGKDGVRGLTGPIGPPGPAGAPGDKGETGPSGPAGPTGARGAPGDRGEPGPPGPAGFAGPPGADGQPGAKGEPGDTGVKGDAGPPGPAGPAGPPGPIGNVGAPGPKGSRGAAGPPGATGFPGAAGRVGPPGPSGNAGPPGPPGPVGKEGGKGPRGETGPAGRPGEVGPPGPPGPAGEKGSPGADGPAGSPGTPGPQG
T1 sequence (P02454 943-1207 limits assumed): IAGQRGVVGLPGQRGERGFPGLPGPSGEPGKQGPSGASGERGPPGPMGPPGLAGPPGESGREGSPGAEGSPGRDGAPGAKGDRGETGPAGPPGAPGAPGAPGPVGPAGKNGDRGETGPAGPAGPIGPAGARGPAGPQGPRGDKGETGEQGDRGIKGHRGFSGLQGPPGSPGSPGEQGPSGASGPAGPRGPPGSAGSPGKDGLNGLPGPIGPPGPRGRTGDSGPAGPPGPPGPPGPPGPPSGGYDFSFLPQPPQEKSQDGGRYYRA
T1 sequence (P02466 86-871 limits assumed): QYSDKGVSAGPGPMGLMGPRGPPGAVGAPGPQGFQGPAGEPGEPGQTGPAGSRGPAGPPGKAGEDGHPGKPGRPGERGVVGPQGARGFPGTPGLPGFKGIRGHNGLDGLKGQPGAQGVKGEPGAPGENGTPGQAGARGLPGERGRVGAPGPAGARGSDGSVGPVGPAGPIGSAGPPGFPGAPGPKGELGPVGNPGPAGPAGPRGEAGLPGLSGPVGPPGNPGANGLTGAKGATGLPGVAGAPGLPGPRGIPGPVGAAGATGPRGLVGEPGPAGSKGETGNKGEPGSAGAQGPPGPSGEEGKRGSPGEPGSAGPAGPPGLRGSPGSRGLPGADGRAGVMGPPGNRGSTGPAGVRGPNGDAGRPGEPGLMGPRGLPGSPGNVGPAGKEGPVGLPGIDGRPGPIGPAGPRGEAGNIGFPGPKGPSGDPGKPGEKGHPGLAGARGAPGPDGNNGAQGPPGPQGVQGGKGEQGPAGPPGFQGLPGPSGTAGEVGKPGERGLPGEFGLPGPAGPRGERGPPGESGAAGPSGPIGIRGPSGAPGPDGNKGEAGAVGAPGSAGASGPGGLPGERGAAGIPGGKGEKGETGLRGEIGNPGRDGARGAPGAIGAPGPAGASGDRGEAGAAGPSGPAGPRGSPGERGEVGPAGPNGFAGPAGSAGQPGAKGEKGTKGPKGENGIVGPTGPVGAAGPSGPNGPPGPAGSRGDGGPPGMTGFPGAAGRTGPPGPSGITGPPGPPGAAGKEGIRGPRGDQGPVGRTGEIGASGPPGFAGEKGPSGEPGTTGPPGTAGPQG
T1 sequence (P02466 872-1125 limits assumed): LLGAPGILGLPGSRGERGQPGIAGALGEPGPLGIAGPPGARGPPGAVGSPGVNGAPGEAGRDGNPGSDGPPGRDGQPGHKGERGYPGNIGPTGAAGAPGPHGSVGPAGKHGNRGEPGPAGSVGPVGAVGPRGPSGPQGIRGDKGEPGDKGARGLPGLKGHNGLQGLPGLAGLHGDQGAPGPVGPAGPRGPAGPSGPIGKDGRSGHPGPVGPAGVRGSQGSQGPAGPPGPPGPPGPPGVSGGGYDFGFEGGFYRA
T2 sequence (P02454 152-1207 limits assumed): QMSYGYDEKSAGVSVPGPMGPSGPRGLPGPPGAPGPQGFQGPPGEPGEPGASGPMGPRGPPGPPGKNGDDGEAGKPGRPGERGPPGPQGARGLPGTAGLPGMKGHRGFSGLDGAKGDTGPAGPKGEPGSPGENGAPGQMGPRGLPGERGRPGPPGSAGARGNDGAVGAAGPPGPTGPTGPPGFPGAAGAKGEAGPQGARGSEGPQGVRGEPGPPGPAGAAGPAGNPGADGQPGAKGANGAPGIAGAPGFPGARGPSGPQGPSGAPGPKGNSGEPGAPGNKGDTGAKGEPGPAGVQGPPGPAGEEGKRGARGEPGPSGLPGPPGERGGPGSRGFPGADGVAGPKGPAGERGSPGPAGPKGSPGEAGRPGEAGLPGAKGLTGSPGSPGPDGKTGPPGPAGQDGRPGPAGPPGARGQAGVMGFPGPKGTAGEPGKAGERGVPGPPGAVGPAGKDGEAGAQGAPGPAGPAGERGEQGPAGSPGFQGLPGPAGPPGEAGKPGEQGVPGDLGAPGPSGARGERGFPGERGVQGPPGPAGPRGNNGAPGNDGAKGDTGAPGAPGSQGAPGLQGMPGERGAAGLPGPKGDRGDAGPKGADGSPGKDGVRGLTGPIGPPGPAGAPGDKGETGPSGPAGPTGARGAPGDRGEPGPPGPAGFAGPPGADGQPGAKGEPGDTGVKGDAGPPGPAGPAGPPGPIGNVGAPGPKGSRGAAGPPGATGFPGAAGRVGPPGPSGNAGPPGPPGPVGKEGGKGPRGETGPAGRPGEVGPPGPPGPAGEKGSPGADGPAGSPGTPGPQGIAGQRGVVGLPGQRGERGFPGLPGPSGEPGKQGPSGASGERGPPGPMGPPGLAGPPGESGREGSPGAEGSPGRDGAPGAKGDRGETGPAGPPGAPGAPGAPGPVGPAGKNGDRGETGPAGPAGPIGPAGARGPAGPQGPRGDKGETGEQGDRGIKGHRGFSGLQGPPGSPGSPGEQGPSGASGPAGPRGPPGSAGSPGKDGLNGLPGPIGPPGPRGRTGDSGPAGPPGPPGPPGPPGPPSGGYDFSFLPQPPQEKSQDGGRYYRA
T2 sequence (P02466 86-1125 limits assumed): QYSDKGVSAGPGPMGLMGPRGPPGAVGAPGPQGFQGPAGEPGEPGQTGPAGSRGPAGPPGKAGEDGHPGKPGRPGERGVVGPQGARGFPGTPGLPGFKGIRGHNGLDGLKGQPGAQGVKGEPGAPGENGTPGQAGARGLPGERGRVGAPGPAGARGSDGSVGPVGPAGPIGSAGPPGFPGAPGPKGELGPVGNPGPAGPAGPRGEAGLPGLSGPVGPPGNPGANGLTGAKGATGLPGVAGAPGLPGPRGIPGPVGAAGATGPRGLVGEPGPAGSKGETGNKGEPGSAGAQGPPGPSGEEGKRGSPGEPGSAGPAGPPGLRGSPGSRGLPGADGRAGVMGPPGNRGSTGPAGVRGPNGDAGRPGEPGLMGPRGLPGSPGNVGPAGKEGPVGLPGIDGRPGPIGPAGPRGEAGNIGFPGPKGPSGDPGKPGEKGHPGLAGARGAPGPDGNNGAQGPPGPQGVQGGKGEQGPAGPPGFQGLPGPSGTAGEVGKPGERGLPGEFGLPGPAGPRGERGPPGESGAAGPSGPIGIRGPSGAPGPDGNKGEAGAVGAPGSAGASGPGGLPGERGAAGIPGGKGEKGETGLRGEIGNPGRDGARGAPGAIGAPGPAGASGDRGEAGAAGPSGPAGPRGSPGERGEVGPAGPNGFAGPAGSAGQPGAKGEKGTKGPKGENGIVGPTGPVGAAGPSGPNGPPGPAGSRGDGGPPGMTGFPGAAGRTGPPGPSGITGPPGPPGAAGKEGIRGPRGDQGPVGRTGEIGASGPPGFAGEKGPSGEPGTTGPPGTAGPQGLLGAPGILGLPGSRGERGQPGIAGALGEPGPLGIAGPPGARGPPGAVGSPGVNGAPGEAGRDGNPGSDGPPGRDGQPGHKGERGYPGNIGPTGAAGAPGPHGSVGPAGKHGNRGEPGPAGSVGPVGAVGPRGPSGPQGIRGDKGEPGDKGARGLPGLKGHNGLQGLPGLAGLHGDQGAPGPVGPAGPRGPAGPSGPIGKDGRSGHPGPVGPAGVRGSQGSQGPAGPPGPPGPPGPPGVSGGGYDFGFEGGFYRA
T3 sequence (P02454 152-1207 limits assumed): as the sequence (P02454 152-1207 limits assumed) above
T3 sequence (P02466 86-1125 limits assumed): as the sequence (P02466 86-1125 limits assumed) above

Substance	level of CMP binding, fold higher compared to all other collagens tested [1]	density of photo-induced CMP binding to intact collagen [2]	level of CMP binding [3]	staining of cell lysate protein bands [4]
CF-GGG-(GPO)4^NBGPO(GPO)4 [CF^NB(GPO)9]	4-10 fold	0.56±0.03 nmol/cm^2	similarly low	
CF-GGG-(GPO)9 [CF(GPO)9]				no protein band was visualized
